Active and inactive are the calls of the source.
How the values were obtained:
[1] = Counterscreen for […] of the human trace amine associated receptor 1 (TAAR1): Fluorescence-based cell-based high throughput dose response assay to identify nonselective Ga16 agonists.; format: functional
[2] = Counterscreen for antagonists of the human trace amine associated receptor 1 (hTAAR1): Fluorescence-based cell-based high throughput dose response assay to identify nonselective Ga16 antagonists.; format: functional
[3] = biological target: T1, Replicative DNA helicase DnaB (Mycobacterium tuberculosis, UniProt P9WMR3); experiment: DnaB intein splicing inhibitors, dose response, biochemical, cell-free fluorescence (AID 449749); format: functional
T1 sequence (P9WMR3 whole entry): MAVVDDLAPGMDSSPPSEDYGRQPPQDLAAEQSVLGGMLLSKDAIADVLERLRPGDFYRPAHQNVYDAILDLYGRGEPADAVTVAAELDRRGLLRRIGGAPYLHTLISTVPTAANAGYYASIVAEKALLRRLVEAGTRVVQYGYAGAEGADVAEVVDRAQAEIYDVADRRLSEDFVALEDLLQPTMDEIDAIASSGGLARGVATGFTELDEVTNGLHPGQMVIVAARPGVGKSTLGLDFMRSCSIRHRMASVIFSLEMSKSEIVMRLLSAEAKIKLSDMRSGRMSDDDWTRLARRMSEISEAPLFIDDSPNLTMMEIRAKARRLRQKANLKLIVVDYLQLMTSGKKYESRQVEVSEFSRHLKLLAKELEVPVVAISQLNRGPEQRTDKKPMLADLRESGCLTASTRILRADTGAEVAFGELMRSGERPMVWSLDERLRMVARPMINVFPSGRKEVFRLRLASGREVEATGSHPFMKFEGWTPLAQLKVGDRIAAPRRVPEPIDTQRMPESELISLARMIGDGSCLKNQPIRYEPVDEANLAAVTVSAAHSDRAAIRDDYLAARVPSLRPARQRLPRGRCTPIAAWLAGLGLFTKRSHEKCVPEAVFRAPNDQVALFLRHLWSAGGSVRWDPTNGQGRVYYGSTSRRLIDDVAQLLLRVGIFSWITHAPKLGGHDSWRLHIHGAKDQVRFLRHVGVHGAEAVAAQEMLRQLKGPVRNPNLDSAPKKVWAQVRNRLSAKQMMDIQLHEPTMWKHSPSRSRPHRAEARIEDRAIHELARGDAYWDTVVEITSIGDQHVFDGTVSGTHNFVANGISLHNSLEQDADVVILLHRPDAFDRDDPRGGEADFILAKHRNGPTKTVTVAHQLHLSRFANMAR

Protein RecA = biological target: T2, Protein RecA (Mycobacterium tuberculosis, UniProt P9WHJ3); experiment: Fluorescence Cell-Free Homogeneous Dose Retest to Identify Inhibitors of RecA-Intein Splicing Activity. [Related pubchem assays (depositor defined):AID2097, AID2223, AID489010, AID492950]; format: functional
T2 sequence (P9WHJ3 whole entry): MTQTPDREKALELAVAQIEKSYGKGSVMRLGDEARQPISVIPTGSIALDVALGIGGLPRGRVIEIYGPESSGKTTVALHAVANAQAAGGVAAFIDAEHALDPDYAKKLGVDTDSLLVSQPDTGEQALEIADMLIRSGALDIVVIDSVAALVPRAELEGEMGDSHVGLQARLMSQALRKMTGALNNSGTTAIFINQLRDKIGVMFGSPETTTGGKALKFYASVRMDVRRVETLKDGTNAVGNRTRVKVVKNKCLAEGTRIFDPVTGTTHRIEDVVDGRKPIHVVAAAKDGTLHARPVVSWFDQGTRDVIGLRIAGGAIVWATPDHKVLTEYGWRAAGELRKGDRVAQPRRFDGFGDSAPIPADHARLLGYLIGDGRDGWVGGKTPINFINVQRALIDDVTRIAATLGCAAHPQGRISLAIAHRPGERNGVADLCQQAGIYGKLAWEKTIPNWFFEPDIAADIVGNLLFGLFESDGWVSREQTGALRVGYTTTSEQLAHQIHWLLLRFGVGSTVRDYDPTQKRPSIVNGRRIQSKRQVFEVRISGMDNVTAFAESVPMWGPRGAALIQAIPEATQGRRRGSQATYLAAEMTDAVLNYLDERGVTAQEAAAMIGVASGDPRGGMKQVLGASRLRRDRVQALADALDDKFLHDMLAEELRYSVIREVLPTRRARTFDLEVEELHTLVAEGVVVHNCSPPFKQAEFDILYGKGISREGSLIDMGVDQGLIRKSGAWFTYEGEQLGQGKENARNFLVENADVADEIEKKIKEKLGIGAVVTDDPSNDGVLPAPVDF

[4] = biological target: T3, Sentrin-specific protease 8 (Homo sapiens, UniProt Q96LD8); format: functional
T3 sequence (Q96LD8 whole entry): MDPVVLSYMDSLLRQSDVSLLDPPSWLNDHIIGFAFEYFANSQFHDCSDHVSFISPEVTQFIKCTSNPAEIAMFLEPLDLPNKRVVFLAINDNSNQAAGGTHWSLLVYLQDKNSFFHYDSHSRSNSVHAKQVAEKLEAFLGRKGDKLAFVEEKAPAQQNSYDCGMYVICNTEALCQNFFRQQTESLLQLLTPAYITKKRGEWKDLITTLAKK

[5] = biological target: T3, Sentrin-specific protease 8; format: functional; remark: listed apart in the source
[6] = biological target: T4, Sentrin-specific protease 1 (Homo sapiens, UniProt Q9P0U3); experiment: Dose response confirmation of small molecule inhibitors of the catalytic domain of the SUMO protease, SENP1 in a FRET assay.; format: functional; conditions: read-out: IC50_Mean
T4 sequence (Q9P0U3 whole entry, the tested form may be a part): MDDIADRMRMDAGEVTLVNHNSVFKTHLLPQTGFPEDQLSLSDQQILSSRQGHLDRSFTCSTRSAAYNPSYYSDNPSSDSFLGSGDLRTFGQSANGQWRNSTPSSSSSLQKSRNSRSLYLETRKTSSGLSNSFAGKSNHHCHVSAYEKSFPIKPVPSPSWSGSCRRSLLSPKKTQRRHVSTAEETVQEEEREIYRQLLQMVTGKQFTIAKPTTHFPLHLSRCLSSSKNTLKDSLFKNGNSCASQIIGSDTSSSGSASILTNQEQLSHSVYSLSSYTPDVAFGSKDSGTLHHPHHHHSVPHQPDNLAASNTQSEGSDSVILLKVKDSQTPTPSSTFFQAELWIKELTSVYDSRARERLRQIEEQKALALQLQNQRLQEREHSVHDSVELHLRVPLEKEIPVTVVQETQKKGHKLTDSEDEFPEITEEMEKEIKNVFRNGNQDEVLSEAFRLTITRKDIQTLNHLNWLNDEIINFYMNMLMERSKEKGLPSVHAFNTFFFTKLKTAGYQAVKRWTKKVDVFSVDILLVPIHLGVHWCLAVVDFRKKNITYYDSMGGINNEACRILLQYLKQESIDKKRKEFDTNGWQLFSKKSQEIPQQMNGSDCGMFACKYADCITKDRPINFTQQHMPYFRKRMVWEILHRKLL

[7] = biological target: T4, Sentrin-specific protease 1; experiment: potency of human SENP1 inhibitors, dose response, biochemical, kinetic FRET (AID 651697); format: functional; conditions: read-out: IC50_Mean
[8] = biological target: Matrix metalloproteinase-14 (Homo sapiens, UniProt P50281); experiment: Dose Response confirmation of uHTS hits for a small molecule inhibitors of MT1-MMP activation in a fluorescence assay set 1.; format: functional
[9] = biological target: T5, Zinc finger protein mex-5 (Caenorhabditis elegans, UniProt Q9XUB2); experiment: MEX-5/TCR-2 RNA interaction inhibitors, dose response, biochemical, C. elegans, fluorescence polarization (AID 1960)
T5 sequence (Q9XUB2 whole entry): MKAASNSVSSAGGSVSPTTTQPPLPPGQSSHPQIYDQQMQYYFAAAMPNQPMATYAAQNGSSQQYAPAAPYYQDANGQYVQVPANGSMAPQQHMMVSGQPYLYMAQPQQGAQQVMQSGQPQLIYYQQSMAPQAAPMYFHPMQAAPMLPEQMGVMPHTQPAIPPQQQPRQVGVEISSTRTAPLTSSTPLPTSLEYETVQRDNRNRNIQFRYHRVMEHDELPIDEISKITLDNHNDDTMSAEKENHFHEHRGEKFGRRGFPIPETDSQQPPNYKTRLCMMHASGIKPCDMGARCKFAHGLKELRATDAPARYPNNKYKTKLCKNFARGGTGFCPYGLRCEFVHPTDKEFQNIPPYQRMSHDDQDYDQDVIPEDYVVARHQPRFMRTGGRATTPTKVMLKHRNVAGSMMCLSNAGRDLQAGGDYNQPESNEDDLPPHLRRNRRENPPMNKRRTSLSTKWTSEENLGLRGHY

BJ [10] = experiment: cells; format: functional, cell-based; conditions: Homo sapiens
[11] = cytotoxicity toward DRD oncogenic fibroblasts, dose response, cell-based, non-viral oncogenic, luminescence (AID 1934); format: functional; conditions: Homo sapiens
[12] = biological target: ADP-ribosylation factor GTPase-activating protein 1 (Rattus norvegicus, UniProt Q62848); experiment: Fluorescence polarization-based biochemical high throughput dose response screening assay to identify inhibitors of ADP-ribosylation factor GTPase activating protein 1 (ARFGAP1).; format: functional
Sequence of ADP-ribosylation factor GTPase-activating protein 1 (Q62848 whole entry): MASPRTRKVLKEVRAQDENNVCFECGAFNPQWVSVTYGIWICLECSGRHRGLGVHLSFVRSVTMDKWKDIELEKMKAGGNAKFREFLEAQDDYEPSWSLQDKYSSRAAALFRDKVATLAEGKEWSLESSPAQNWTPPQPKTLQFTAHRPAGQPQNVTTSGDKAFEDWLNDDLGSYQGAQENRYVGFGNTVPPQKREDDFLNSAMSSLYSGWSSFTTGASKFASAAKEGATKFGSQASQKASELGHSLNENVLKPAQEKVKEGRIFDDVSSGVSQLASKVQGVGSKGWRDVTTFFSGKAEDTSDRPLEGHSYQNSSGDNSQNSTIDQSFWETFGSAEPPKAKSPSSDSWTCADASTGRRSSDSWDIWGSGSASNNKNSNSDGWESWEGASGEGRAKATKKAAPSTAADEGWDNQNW

[13] = biological target: Neurotensin receptor type 1 (Homo sapiens, UniProt P30989); format: functional;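 note: Image-based confirmatory dose-response assay measuring agonist activity at NTR1; NTR1-expressing U2OS osteosarcoma cells imaged for beta-arrestin GFP spot formation; agonist potency where compounds increase beta-arrestin recruitment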
Sequence of Neurotensin receptor type 1 (P30989 whole entry): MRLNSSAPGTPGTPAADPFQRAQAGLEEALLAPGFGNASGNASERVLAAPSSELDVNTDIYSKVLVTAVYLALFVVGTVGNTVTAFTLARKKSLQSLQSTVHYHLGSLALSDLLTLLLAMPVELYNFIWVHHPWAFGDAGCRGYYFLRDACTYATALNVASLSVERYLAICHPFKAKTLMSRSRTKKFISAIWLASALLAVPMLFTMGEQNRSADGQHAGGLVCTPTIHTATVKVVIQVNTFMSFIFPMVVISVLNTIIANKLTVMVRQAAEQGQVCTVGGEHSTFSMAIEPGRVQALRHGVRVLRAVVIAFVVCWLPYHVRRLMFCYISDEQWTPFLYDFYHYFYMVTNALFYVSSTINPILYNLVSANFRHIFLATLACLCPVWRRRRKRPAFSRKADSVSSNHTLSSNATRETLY

BJ [14] = experiment: cytotoxicity toward BJ-TERT fibroblasts, dose response, cell-based, RAS-independent, luminescence (AID 1933); format: functional; conditions: Homo sapiens
[15] = biological target: T6, RNA-binding protein pos-1 (Caenorhabditis elegans, UniProt G5EF15); experiment: inhibitors of POS-1/mex-3 RNA binding, dose response, biochemical, fluorescence polarization (AID 1964);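 note: purified POS-1 fused to maltose binding protein made in E. coli; potency of compounds blocking POS-1 binding to fluorescent RNA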
T6 sequence (G5EF15 whole entry): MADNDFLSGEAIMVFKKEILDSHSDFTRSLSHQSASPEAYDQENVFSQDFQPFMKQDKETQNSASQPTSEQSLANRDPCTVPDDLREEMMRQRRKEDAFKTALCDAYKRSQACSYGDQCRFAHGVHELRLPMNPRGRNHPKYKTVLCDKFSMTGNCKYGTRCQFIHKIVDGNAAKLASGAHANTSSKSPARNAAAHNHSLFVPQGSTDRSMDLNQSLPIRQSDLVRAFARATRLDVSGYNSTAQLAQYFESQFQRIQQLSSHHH

BJ [16] = experiment: cytotoxicity toward BJ-TERT-LT-ST fibroblasts, dose response, cell-based, RAS-independent, luminescence (AID 1935); format: functional; conditions: Homo sapiens;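 note: BJ fibroblasts immortalized with TERT plus LT and ST oncogenes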
[17] = biological target: Hepatocyte nuclear factor 4-alpha (Homo sapiens, UniProt P41235); format: functional, cell-based;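 note: biochemical luminescence-based dose-response counterscreen measuring inhibition of HNF4 dimerization, run alongside a screen for blockers of ABHD5–perilipin-5 interaction; split luciferase complementation of HNF4 fusion proteins in cell lysate measuring dimerization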
Sequence of Hepatocyte nuclear factor 4-alpha (P41235 whole entry, the tested form may be a part): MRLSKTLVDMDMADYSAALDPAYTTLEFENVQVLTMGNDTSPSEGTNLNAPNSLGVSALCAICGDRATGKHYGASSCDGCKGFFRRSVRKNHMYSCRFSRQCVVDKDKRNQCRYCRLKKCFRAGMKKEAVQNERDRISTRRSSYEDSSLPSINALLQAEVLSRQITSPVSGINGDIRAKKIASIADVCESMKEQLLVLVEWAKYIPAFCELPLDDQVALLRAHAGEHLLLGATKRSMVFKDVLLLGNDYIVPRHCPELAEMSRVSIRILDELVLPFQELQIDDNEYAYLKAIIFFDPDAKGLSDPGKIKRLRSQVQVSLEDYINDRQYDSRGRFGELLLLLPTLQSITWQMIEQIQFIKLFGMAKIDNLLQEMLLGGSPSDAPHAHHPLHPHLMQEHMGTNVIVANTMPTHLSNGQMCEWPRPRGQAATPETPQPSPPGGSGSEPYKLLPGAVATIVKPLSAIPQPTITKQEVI

[18] = biological target: T7, ATP-dependent translocase ABCB1 (Homo sapiens, UniProt P08183); experiment: ABCB1 efflux inhibitor potency, dose response, Jurkat-DNR cells, JC-1, flow cytometry, set 2 (AID 504569); format: functional; conditions: read-out: EC50_MICROM_;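 note: potency of pump inhibitors that raise cellular JC-1 green fluorescence up to the nicardipine level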
T7 sequence (P08183 whole entry): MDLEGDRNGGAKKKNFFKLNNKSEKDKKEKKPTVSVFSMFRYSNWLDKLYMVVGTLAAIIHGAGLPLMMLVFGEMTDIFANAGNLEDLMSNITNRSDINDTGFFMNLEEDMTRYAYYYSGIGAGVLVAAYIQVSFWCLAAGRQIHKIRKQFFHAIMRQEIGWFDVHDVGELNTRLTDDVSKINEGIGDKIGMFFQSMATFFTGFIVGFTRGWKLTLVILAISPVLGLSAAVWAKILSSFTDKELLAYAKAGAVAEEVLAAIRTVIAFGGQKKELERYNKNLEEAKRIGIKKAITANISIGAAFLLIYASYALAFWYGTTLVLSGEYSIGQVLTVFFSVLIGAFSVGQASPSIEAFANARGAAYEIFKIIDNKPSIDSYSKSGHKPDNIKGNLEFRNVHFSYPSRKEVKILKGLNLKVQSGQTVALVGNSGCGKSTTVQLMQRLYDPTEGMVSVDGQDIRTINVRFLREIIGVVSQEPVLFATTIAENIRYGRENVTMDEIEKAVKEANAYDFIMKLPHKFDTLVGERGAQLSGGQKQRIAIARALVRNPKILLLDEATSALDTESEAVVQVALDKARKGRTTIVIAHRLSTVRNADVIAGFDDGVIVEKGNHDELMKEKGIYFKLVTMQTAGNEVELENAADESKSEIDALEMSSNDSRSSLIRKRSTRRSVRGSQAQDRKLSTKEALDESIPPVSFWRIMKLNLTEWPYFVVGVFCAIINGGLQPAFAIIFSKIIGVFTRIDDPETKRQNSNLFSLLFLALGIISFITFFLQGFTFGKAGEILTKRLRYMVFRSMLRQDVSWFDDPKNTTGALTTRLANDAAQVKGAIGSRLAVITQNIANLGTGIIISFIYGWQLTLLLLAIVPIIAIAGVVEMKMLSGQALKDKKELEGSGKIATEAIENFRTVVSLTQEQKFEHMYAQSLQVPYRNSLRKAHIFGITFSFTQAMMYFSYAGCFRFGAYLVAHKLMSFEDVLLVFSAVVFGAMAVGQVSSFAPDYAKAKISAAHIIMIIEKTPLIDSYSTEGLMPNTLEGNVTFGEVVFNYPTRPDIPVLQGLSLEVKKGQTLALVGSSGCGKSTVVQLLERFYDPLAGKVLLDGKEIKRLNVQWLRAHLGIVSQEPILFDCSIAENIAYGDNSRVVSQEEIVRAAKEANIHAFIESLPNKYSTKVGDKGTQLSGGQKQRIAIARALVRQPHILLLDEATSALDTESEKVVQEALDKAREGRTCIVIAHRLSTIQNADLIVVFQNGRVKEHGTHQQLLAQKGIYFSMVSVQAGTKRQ

[19] = biological target: T7, ATP-dependent translocase ABCB1; experiment: ABCG2 efflux pump inhibitor potency, dose response, Ig-MXP3 cells, JC-1, flow cytometry, set 2 (AID 504566); format: functional; conditions: read-out: EC50_MICROM_;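 note: flow cytometry median green fluorescence of retained JC-1 dye; potency of efflux pump inhibition measured as rising substrate retention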
[20] = biological target: Photoreceptor-specific nuclear receptor (Homo sapiens, UniProt Q9Y5X4); format: functional, cell-based;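 note: CHO-S cells with Gal4-NCOR and VP16-NR2E3 two-hybrid luciferase reporter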
Sequence of Photoreceptor-specific nuclear receptor (Q9Y5X4 whole entry, the tested form may be a part): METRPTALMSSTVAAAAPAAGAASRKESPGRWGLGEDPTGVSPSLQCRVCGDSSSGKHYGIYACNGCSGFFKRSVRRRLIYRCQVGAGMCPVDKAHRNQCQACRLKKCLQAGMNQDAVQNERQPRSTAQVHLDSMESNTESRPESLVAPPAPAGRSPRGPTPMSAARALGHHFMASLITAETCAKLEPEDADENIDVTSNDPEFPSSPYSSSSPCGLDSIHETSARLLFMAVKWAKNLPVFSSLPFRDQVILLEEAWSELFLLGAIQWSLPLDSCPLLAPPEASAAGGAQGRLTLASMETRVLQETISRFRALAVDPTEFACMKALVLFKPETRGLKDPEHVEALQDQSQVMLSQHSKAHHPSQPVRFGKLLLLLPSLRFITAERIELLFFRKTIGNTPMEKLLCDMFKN

BHK-21 = experiment: BHK-21 cell toxicity, dose response, cytotoxicity control, plate reader, cherry-pick samples (AID 687030); format: functional, cell-based; conditions: Mesocricetus auratus
[21] = biological target: Nuclear receptor subfamily 0 group B member 1 (Homo sapiens, UniProt P51843); format: functional, cell-based;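 note: HEK293T cells transfected with SF-1 and DAX-1 plus StAR promoter luciferase reporter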
Sequence of Nuclear receptor subfamily 0 group B member 1 (P51843 whole entry): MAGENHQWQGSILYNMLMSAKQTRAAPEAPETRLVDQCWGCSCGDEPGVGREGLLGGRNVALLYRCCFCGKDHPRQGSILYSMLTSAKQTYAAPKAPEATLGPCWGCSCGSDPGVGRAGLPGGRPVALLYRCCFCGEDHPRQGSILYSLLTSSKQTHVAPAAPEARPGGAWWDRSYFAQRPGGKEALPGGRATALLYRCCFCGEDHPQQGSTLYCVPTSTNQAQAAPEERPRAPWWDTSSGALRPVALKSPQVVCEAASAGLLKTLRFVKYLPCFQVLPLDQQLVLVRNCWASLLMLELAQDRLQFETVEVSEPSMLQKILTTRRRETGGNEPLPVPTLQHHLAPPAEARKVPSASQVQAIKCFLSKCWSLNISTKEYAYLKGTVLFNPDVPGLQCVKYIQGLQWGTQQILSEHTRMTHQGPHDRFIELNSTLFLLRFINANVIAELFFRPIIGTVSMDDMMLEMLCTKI

cells = format: functional, cell-based
[22] = T. cruzi growth inhibition in host cells, dose response, cell-based, plate reader, dry powder, set 2 (AID 652275); format: functional
[23] = biological target: T8, Aryl hydrocarbon receptor (Homo sapiens, UniProt P35869); conditions: Potency;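 note: confirmatory quantitative high-throughput screen measuring activation of the AhR signaling pathway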
T8 sequence (P35869 whole entry): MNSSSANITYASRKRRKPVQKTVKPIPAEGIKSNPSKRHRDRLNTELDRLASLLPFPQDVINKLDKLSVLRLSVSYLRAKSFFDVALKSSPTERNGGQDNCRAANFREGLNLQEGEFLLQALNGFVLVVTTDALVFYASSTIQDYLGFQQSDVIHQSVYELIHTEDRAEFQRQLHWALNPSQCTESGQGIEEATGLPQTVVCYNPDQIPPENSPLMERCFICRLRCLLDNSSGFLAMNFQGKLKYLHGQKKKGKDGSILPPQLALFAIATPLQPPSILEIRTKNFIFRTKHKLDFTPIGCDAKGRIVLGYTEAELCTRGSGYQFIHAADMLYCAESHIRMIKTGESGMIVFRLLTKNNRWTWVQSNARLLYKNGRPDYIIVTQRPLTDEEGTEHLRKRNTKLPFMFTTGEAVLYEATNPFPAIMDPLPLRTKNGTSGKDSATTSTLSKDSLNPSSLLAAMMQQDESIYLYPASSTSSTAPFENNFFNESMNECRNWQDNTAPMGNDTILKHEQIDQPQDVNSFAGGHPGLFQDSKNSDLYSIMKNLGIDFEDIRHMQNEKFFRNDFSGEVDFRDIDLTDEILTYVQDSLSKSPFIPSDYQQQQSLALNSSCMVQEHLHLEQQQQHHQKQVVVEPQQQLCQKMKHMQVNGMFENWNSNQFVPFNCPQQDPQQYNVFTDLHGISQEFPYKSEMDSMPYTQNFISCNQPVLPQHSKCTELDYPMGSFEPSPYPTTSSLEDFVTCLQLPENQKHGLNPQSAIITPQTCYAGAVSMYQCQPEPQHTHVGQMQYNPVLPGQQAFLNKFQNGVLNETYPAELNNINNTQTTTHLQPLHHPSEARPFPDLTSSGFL

[24] = microbe, parasite or virus in culture; format: functional; conditions: Mycobacterium tuberculosis
[25] = biological target: Heat shock protein HSP 90-alpha (Homo sapiens, UniProt P07900); format: functional, organism-based

Compound: CC(=O)c1ccc(NC(=O)c2ccc(COc3ccccc3[N+](=O)[O-])o2)cc1
- EC50 [1]: > 29.9 µM (inactive)
- IC50 [2]: > 29.9 µM (inactive)

Compound: Cc1cc(C)nc(N2N=C(C(C)(C)C)CC2=O)n1
- AC50 [3]: 14.9 µM (active)
- EC50 (Protein RecA): 10.9 µM (active)
- IC50 [4]: 12.1 µM (active)
- IC50 [5]: 8.2 µM (active)

Compound: Cc1cc(C(=O)NCc2ccccc2F)c2ccccc2n1
- IC50 [6]: 10.8 µM (active)
- IC50 [7]: 17.9 µM (active)

Compound: CC(=O)Oc1ccc2oc(/C=C/N(C)C)c([N+](=O)[O-])c2c1
- IC50 [8]: 56.8 µM (inactive)

Compound: COc1cc2c3nnc(-c4ccc(F)cc4)c-3cn(Cc3ccc(C)cc3)c2cc1OC
- EC50 [9]: 1.1 µM (inconclusive)
- EC50 (BJ [10]): 17.3 µM (active)
- EC50 [11]: 10.4 µM (active)
- IC50 [12]: 70 µM (inactive)
- EC50 [13]: 2.4 µM (active)
- EC50 (BJ [14]): 5.16 µM (inconclusive)
- EC50 [15]: 2.2 µM (inconclusive)
- EC50 (BJ [16]): 4.86 µM (active)

Compound: Cc1ccc(S(=O)(=O)N2C[C@H]3n4c(=O)ccc(=O)n4C[C@H](OC(=O)Nc4cccs4)[C@@]3(O)C2)cc1
- IC50 [17]: 14.6 µM (inactive)

Compound: O=C(c1ccoc1)N1CCN(c2cc(-c3ccccc3)nc3cc(-c4ccc(Br)cc4)nn23)CC1
- EC50 [18]: 1.06 µM (active)
- EC50 [19]: 0.6 µM (active)

Compound: COc1ccc(CNC(=O)c2cccc3c(-c4ccc(F)c(F)c4)coc23)cc1OC
- IC50 [20]: 4.63 µM (active)

Compound: CCNC(=O)C[C@H]1CC[C@@H]2[C@H](COC[C@H](O)CN2Cc2ccc(Cl)c(Cl)c2)O1
- AC50 (BHK-21): 36.8 µM (active)

Compound: C=C1CCCC2OC(CC3=CC4/C(C)=C/CC(C)CC(/C=C(\C)C(O)C5CC(O)C(O)C(CCC(O)/C=C/C(C)=C/CCC6=NCCC(C3)C64C)O5)OC(=O)CC3OC(C(O)C1)C(O)C3O)CC(O)C2O (stereo not drawn)
- IC50 [21]: > 67.5 µM (inactive)
- IC50 (cells): > 67.5 µM (inactive)

Compound: O=C(C1CCCC1)N1CCCCN2[C@@H](CO)[C@H](c3ccc(-c4cccc(F)c4)cc3)[C@@H]2C1
- AC50 [22]: 0.121 µM (active)

Compound: CC(=O)N1CCN(c2ccc(OC[C@H]3CO[C@](Cn4ccnc4)(c4ccc(Cl)cc4Cl)O3)cc2)CC1 [KETOCONAZOLE]
- AC50 [23]: 44.7 µM (inconclusive)
- CC50 [24]: > 40 µM (active)
- AC50 [25]: 0.435 µM (active)
